Reference: patent US20060258589A1, “Methods for enhancing radiation therapy” (IGF Oncology, LLC, priority 2004, published 2006)

B1: LONG-R3-IGF-1: variant IGF-1 with reduced binding affinity for the soluble IGF-1 binding proteins (SEQ ID NO:1) (protein)
chain: MFPAMPLSSLFVNGPRTLCGAELVDALQFVCGDRGFYFNKPTGYSSSRRAPQTGIVDECCFRSCDLRRLEMYCAPLKPAKSA
modifications: LONG-R3-IGF-1 synthetic variant of IGF-1

Legend:
[1] = system: LnCap, MiaPaCa, H226, and A549 tumors; experiment: In vivo assays: growth of tumor volume after irradiation of subcutaneous tumors in nude mice; settings: male nude mice; treated 30 minutes before 15 Gy X-rays; followed for 3 weeks
Experimental: LnCap, MiaPaCa, H226, and A549 cells are grown in culture. Cells are harvested using 0.25% trypsin, washed, suspended in Dulbecco's PBS, and counted. 1×10^6 cells are injected subcutaneously into the hind thigh of male nude mice. Tumors are grown to 250 mm^3 in ˜21 days. Tumors are measured with a caliper, and the tumor size is calculated by the formula a^2b/2, where a and b are the shorter and longer diameters of the tumor, respectively. When the tumors reach 250 mm^3, the mice are treated with insulin (5 or 40 μg/kg), IGF-1 (5 or 100 μg/kg) or insulin+glucose (5 g glucose/kg), or growth hormone (50 or 500 μg/kg), or saline control 30 minutes before radiation treatment. The mice are anesthetized immediately before radiation treatment, and then the tumor-bearing leg is irradiated with X-rays at 1.4 Gy/minute, receiving a dose of 15 Gy. The growth of tumor volume in the mice after irradiation is followed for 3 weeks.

[2] = system: MiaPaCa, LnCap, H226 and A549 cells; experiment: In vitro assays: surviving fraction (colony formation) of cancer cells after X-ray irradiation; assay type: cell-based, human; settings: hormone added before 200 rads X-rays; for sensitization to radiation: exponential phase cells; for cell killing by radiation: plateau-phase cells, at least some concentrations and times
Experimental: MiaPaCa (a human pancreatic cancer cell line), LnCap (a human prostate cancer cell line), H226 and A549 (two human lung cancer cell lines) are grown in monolayer cultures in McCoy's 5A medium containing 10% fetal bovine serum and buffered with 2.0 g/L sodium bicarbonate and 0.02 M Hepes, pH 7.4. The cells are at seeded at 6×10^4 cells per T30 flask. On day 3 the medium is changed. The cells are irradiated at either 4 days (exponential cells) or 7 days (plateau-phase cells). Twenty minutes before, 2 hours before, or immediately before irradiation, insulin (0.01, 0.1, or 1 μg/ml) or IGF-1 (3, 20, or 150 ng/ml) is added to the medium. Control cells have no added hormone. The cells are then irradiated with 200 rads X-rays. After irradiation, the cells are allowed to recover in the used medium for 60 minutes.
The cells are then typsinized and plated in fresh medium. The surviving fraction of a specific number of plated cells is determined by staining colonies with methylene blue after 7-10 days of growth.
Exponential-phase and plateau-phase cells are then treated with insulin and IGF-1 separately and together at their experimentally determined optimal concentrations immediately before, 15 minutes before, and 2 hours before irradiation with a range of radiation doses. Again, the cells are trypsinized and plated, and the percent surviving is determined.
Exponential- and plateau-phase cells are then treated with insulin at the optimal concentration in combination with 30 mM glucose.

breast cancer cells = settings: tissue culture; methotrexate killing; cited from earlier work
[3] = another study; cited from earlier work
cancer cells = settings: Ciftci 2003; cited from earlier work
[4] = system: soluble IGF-1 binding proteins; settings: compared to native IGF-1; Francis 1992, Tomas 1993; cited from earlier work

Row | Molecule | effectiveness of radiation therapy (growth of tumor volume) [1] | sensitization to radiation [2] | cell killing by radiation [2] | enhancement of the killing of breast cancer cells (breast cancer cells) | enhancement of uptake of methotrexate [3] | proportion of cells in the G2 and M phases of the cell cycle (cancer cells) | binding affinity for the soluble IGF-1 binding proteins [4]
1 | growth hormone | enhance the effectiveness of radiation therapy | – | – | – | – | – | –
2 | insulin | enhance the effectiveness of radiation therapy | sensitized to radiation | increase cell killing by radiation | up to 10,000 fold | 2 factor | – | –
3 | insulin-like growth factor-1 [IGF-1] | enhance the effectiveness of radiation therapy | sensitized to radiation | increase cell killing by radiation | – | – | moves a greater proportion of the cells into the G2 and M phases | –
4 | B1 | – | – | – | – | – | – | reduced binding affinity
